# Structures can show the parent of a compound that is named as a salt.
# Test system: Isolated, single ring preparations of guinea-pig trachea
# Experiment: relaxant effect after tone contracture induced by histamine in isolated guinea-pig trachea rings
# Format: cell-based
# Conditions: Cavia porcellus, contracture by histamine (40 μM), flurbiprofen (1 μM) present, 37° C., cumulative concentration-effect curves
# Description: Compounds of formula I show strong bronchodilator activity, which for instance can be measured by the relaxant effect of the compounds after tone contracture by histamine, which is determined as follows. Isolated, single ring preparations of guinea-pig trachea were suspended in tissue baths containing KrebsHenseleit solution, at 37° C., bubbled with a gaseous mixture of 5% CO2 and 95% 02 Tissues were allowed to equilibrate for 60 min. after which flurbiprofen (1 μM), a cyclo-oxygenase inhibitor, was added to the tissue bath and a further 60 min. equilibration allowed to elapse. The flurbiprofen remained in contact with the tissue for the duration of the experiment in order to eliminate the complications that arise in guinea-pig airway preparations due to the spontaneous and agonist-induced generation of cyclo-oxygenase products (for example PGE2 and PGF2α) No other drugs (e.g. atropine or β-adrenoceptor antagonists) were present during the experimental protocol. […] Thus, tone (contracture) was induced by addition of an equi-effective (EC50) concentration of histamine (40 μM). The relaxant effects of each compound were tested by constructing cumulative concentration-effect curves. In each experiment, three preparations were contracted with histamine. After completion of the relaxant concentration-effect curves the compound under test was thoroughly washed out from the preparations which were then left to recover to control levels of resting tension (approx. 60 min.). Results of this test for the compounds of formula I are denoted in the table.
row,EC50 [µM],SMILES
1,5,"COc1cc(OC)c2cc(C(=N)NO)oc2c1 [OCH3 H H NH2 O HCl, N-hydroxy-4,6-dimethoxy-benzo[b]furan-2-carboximidamide]"
2,5,"COc1cc2cc(/C=N\O)sc2cc1OC [H OCH3 H H(Z-isomer) S none, (Z)-5,6-dimethoxy-benzo[b]thiophene-2-carboxaldehyde oxime]"
3,2.5,"COc1cc2sc(C(=N)NO)cc2c(F)c1OC [F OCH3 H NH2 S CH3 SO3 H, 4-fluoro-N-hydroxy-5,6-dimethoxy-benzo[b]thiophene-2-carboximidamide]"
4,5,"COc1cc2sc(C=NO)cc2c(Cl)c1OC (mixture of isomers) [Cl OCH3 H H(Z/E mixture) S none, 4-chloro-5,6-dimethoxy-benzo[b]thiophene-2-carboxaldehyde oxime]"
5,8,"COc1cc2cc(C(=N)NO)sc2cc1OC [H OCH3 H NH2 S none, N-hydroxy-5,6-dimethoxy-benzo[b]thiophene-2-carboximidamide]"
6,8,"COc1c(OC)c(Cl)c2sc(C(=N)NO)cc2c1Cl [Cl OCH3 Cl NH2 S HCl, 4,7-dichloro-N-hydroxy-5,6-dimethoxy-benzo[b]thiophene-2-carboximidamide hydrochloride]"
7,0.1,"COc1cc2cc(/C(C)=N/O)sc2cc1OC [H OCH3 H CH3 (E-isomer) S none, (E)-1-(5,6-dimethoxy-benzo[b]thien-2-yl)-ethanone oxime]"
8,1,"COc1cc2sc(C(=N)NO)cc2c(Br)c1OC [Br OCH3 H NH2 S CH3 SO3 H, 4-bromo-N-hydroxy-5,6-dimethoxy-benzo[b]thiophene-2-carboximidamide methanesulphonate]"
9,5,"COc1cc2sc(C(=N)NO)cc2cc1OC(F)F [H OCHF2 H NH2 S HCl, 5-difluoromethyloxy-N-hydroxy-6-methoxy-benzo[b]thiophene-2-carboximidamide hydrochloride]"
10,3,"COc1cc2c(cc1OC)CCC(C(=N)NO)=C2 [H OCH3 H NH2 (CH2)2 HCl, 1,2-dihydro-N-hydroxy-6,7-dimethoxy-naphthalene-3-carboximidamide]"
11,10,"COc1cc2sc(C(=N)NO)cc2c(Cl)c1O [Cl OH H NH2 S HCl, 4-chloro-5,N-dihydroxy-6-methoxy-benzo[b]thiophene-2-carboximidamide hydrochloride]"
12,2,"COc1cc2cc(/C=N/O)sc2cc1OC [H OCH3 H H(E-isomer) S none, (E)-5,6-dimethoxy-benzo[b]thiophene-2-carboxaldehyde oxime]"

# From patent publication US5026724A, “Compounds with bronchodilator activity” (Akzo N.V., priority 1988, dated 1991)
